For assay [1], the target named is T1, δ-opioid receptor (Mus musculus, UniProt P32300). Conditions: δ-antagonism in vitro; cited from earlier work.
In assay [2] the test system is μ-opioid receptor. The settings on record: μ-antagonism in vitro; cited from earlier work.
Assay [3] has as its target T1, δ-opioid receptor. Conditions: read-out: MVD IC50; agonism, mouse vas deferens; cited from earlier work.
Assay [4] deals with δ-opioid receptor (DOR) (Rattus norvegicus, UniProt P33533). The settings on record: cited from earlier work; for Ki: read-out: Receptor affinity Ki δ, rat brain membranes.
In assay [5] the target is μ-opioid receptors (Cavia porcellus, UniProt A0ACM8Q262). The settings on record: read-out: GPI IC50; agonism, guinea pig ileum; cited from earlier work.
The target of assay [6] is μ-opioid receptor (MOR) (Rattus norvegicus, UniProt P33535). Conditions: cited from earlier work; for Selectivity Kiδ/Kiμ: ratio of binding Ki values; for Ki: read-out: Receptor affinity Ki μ, rat brain membranes.
Assay [7] concerns the target T1, δ-opioid receptor. In words: Effect on deltorphin C stimulated GTPγS binding in NG108-15 cell membranes. It counts as biochemical. The settings on record: for GTPγS (pA2)δ: antagonism of deltorphin C stimulated GTPγS binding, NG108-15 cell membranes, NA: not active (>20.000nM).

Numbered stars: 1 amine (or outer) side, 2 acyl side, 3 side chain; on linkers, the order of the positions; unused ones are H or OH. Bridge positions count the residues as written; N and C are the ends. Square brackets hold non-standard residues; d marks the D form. Peptide text beside a SMILES is read from it. I, II: the chains in the order shown. Dmt = Cc1cc(O)cc(C)c1C[C@H](N)C(=O)O; Ethylenediamine = C(CN[*:2])N[*:1]; Tic = O=C(O)[C@@H]1Cc2ccccc2CN1

Sequence of μ-opioid receptor (MOR) (P33535 whole entry): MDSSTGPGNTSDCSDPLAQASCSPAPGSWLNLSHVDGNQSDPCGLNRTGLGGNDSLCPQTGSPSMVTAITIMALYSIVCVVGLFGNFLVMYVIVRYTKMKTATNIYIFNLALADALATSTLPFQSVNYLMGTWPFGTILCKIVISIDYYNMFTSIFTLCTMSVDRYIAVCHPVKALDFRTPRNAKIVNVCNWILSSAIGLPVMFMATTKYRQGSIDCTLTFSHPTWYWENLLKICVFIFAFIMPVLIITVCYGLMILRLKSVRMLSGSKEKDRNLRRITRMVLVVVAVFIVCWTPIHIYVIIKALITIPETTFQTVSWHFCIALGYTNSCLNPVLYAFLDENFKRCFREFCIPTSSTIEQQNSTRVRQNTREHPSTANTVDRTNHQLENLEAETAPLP
Sequence of δ-opioid receptor (DOR) (P33533 whole entry): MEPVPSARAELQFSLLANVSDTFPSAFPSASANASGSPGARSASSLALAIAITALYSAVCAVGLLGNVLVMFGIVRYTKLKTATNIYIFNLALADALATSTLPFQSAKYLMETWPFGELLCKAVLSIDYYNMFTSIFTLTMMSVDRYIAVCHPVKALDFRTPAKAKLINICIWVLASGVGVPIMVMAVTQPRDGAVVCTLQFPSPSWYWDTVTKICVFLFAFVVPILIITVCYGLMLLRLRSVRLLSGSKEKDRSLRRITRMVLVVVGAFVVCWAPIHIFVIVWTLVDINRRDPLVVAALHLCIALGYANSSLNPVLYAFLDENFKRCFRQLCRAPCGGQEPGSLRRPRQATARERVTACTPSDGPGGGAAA
T1 sequence (P32300 whole entry): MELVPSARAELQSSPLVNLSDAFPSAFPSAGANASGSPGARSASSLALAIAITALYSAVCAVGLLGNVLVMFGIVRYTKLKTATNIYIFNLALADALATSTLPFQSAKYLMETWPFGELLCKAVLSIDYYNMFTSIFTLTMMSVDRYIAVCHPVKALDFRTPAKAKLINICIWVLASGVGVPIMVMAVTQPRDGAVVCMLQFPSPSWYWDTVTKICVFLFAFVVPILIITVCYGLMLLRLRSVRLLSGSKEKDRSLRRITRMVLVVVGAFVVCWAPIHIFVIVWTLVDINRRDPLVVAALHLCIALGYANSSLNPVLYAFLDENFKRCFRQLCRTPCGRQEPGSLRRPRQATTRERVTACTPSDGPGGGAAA
Sequence of μ-opioid receptors (A0ACM8Q262 1-400): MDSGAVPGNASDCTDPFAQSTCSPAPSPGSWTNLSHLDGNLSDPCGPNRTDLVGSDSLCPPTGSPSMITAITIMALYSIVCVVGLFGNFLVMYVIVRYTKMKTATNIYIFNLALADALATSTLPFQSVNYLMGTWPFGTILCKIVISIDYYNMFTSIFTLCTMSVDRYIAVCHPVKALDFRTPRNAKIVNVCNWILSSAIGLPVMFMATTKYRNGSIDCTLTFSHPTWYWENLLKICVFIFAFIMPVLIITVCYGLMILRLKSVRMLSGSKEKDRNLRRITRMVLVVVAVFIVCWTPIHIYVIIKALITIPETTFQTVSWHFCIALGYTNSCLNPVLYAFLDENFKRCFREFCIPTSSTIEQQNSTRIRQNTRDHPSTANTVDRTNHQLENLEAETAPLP

As for `Cc1cc(O)cc(C)c1CC(N)C(=O)N1Cc2ccccc2CC1C(=O)NCCCCCCNC(=O)C1Cc2ccccc2CN1C(=O)C(N)Cc1c(C)cc(O)cc1C` (stereo not drawn) [1,6-bis[H-Dmt-Tic-NH]hexane], the “pA2 δ” value in assay [1] is reported as 10.62.
For the compound `Cc1cc(O)cc(C)c1CC(N)C(=O)N1Cc2ccccc2CC1C(=O)NCCCCNC(=O)C1Cc2ccccc2CN1C(=O)C(N)Cc1c(C)cc(O)cc1C` (stereo not drawn) [butylene-bis[Dmt-Tic-NH]], the “pA2 μ” value in assay [2] is given as 6.99. Besides, the “pA2 δ” value in assay [1] is reported as 10.51.
Broadly, the IC50 is the concentration that inhibits the measured activity by half. By Ki is commonly meant a dissociation constant, usually derived from enzyme kinetics or from competition with a known ligand. Turning to `Cc1cc(O)cc(C)c1C[C@H](N)C(=O)N[C@H]1Cc2ccccc2CN(CC(=O)NCc2ccccc2)C1=O` [compound 6, H-Dmt-Aba-Gly-NH-Bn], the figures for the IC50 in assay [3] and in assay [5] were 0.83 ± 0.07 µM and 0.051 ± 0.005 µM, respectively. For the same compound, the Ki is 0.011 ± 0.0023 µM in assay [4] and 0.00046 ± 7e-05 µM in assay [6]. Besides, the “Selectivity Kiδ/Kiμ” value in assay [6] is reported as 24.
In the case of `Cc1cc(O)cc(C)c1C[C@H](N)C(=O)N[C@@H]1Cc2c([nH]c3ccccc23)CN(CC(=O)NCc2ccccc2)C1=O` [compound 7, H-Dmt-D-Aia-Gly-NH-Bn], the IC50 was 1.5 ± 0.139 µM in assay [3] and 0.0149 ± 0.0016 µM in assay [5]. The Ki in assay [4] was 0.16 ± 0.023 µM; in assay [6], 0.00335 ± 0.00028 µM. Moreover, in assay [6], the “Selectivity Kiδ/Kiμ” value is given as 48.
As to `Cc1cc(O)cc(C)c1C[C@@H](C(=O)N[C@H]1Cc2c([nH]c3ccccc23)CN(CC(=O)O)C1=O)N(C)C` [compound 8, Me2Dmt-Aia-Gly-OH], in assay [4] (ratio of binding Ki values), the “Selectivity Kiμ/Kiδ” value was 132. In addition, the Ki in assay [4] was 0.00664 ± 0.00089 µM; in assay [6] it was 0.874 ± 0.1 µM.
Turning to `Cc1cc(O)cc(C)c1C[C@H](N)C(=O)N1Cc2ccccc2C[C@H]1C(=O)NCCNC(=O)[C@@H]1Cc2ccccc2CN1C(=O)[C@@H](N)Cc1c(C)cc(O)cc1C` [compound 9, ethylene-bis(H-Dmt-Tic-NH)] (I: H-[Dmt]-[Tic] / II: H-[Dmt]-[Tic]; linker I:C-II:C via Ethylenediamine), in assay [7], the Kb was determined as 0.000912 µM and the “GTPγS (pA2)δ” value amounted to 9.04.
Consider `Cc1cc(O)cc(C)c1C[C@H](N)C(=O)N[C@@H]1Cc2c([nH]c3ccccc23)CN(CC(=O)NCCNC(=O)CN2Cc3[nH]c4ccccc4c3C[C@@H](NC(=O)[C@@H](N)Cc3c(C)cc(O)cc3C)C2=O)C1=O` [compound 11, ethylene-bis(H-Dmt-D-Aia-Gly-NH)], for which the “GTPγS (pA2)δ” value in assay [7] is “unable to diminish the GTPγS binding”.
`Cc1cc(O)cc(C)c1C[C@H](N)C(=O)N1Cc2ccccc2C[C@H]1C(=O)NCCN(CCNC(=O)[C@@H]1Cc2ccccc2CN1C(=O)[C@@H](N)Cc1c(C)cc(O)cc1C)CCNC(=O)[C@@H]1Cc2ccccc2CN1C(=O)[C@@H](N)Cc1c(C)cc(O)cc1C` [compound 15, tris-[H-Dmt-Tic-NH-ethylene]-N] showed a Kb in assay [7] of 0.00229 µM.
With `Cc1cc(O)cc(C)c1C[C@H](N)C(=O)N[C@H]1Cc2ccccc2CN(CC(=O)NCCN(CCNC(=O)CN2Cc3ccccc3C[C@H](NC(=O)[C@@H](N)Cc3c(C)cc(O)cc3C)C2=O)CCNC(=O)CN2Cc3ccccc3C[C@H](NC(=O)[C@@H](N)Cc3c(C)cc(O)cc3C)C2=O)C1=O` [compound 16, tris-[H-Dmt-Aba-Gly-NH-ethylene]-N], the Kb in assay [7] is 0.0229 µM.
